US20070269420A1, “Compounds, Compositions and Methods for Treatment and Prophylaxis of Hepatitis C Viral Infections and Associated Diseases” (priority 2003, published 2007)
Like-named read-outs stand apart in the source and are kept apart here.

Columns and labels:
[1] = system: HCV replicon (BB7 sequence) in Huh-7-Clone A cells; experiment: HCV replicon NS5A ELISA, inhibition of viral RNA replication; type: cell-based, hepatitis C virus; conditions: Hepatitis C virus
Protocol: Antiviral activity of representative compounds of the invention was evaluated in a human liver-derived cell line (Huh-7-Clone A) containing the HCV replicon (BB7 sequence) (See Lohmann et al. Science. 1999, 285:110-3; Blight K J et al., Science. 2000, 290:1972-4; Pietschmann, T. et al., J. Virol. 2001, 73:1252-1264; and Lohmann, V. et al., J. Virol. 2001, 75:1437-1449). The HCV replicon is a subgenomic viral RNA that expresses the HCV proteins required for its own replication. These proteins include non-structural proteins NS3, NS4A, NS4B, NS5A and NS5B. The replicon also contains a foreign gene encoding a drug-selectable marker (neomycin phosphotransferase) to allow for G418 (neomycin) selection of cells that contain the replicon.
An ELISA (enzyme-linked immunosorbant assay) was used to determine the effect of compounds within the scope of the invention on the amount of HCV NS5A protein produced after a 72-hour incubation of the replicon-containing cells in the presence of varying concentrations of compound. Huh7-Clone A cells were seeded in 96-well plates at a subconfluent density (9000 cells/well) in medium containing 2% FBS and incubated for 4 hours to allow attachment to occur. HCV-086 (solubilized with 100% dimethylsulfoxide [DMSO]) was added to wells using an 8-point, 3-fold serial dilution series, with a final DMSO concentration of 1% in a total volume of 200 μL. Plates were incubated for 72 hours at 37° C. and 5% CO2. Under these conditions, the cells are approximately 25% confluent at the time of seeding and 80-90% confluent on day 3. COSTAR® 96-well cell culture plates were used but other known cell culture plates may be used. After incubation, media is removed from wells and the cells are fixed to the assay plate using 0.05% glutaraldehyde (Fisher # 02957-4). The glutaraldehyde is then washed off using phosphate-buffered saline (PBS) following a 1 hour incubation and cells are blocked for non-specific antibody binding using for example SUPERBLOCK® reagent (blocking buffer) in PBS. The blocking agent is rinsed from the cells with PBS after 1 hour at 37° C., and HCV NS5A monoclonal antibody (Virostat # 1873) is added to each well containing compound. Primary antibody is incubated for 1 hour at 37° C. and rinsed 3 times with PBS containing 0.02% TWEEN-20™ before addition of Horseradish Peroxidase (HRP) conjugated secondary antibody. HRP is incubated for 1 hour at 37° C. and rinsed several times, first with PBS/TWEEN-20™ followed by PBS alone. To quantify peroxidase activity, 3,3′,5,5′-tetramethylbenzidine (TMB) substrate is added to the plate and after 30 minutes, the plates are read in an ELISA plate reader at an OD of 650 nm.
Compound dose response was measured in an 8-point dose curve diluted serially to determine the inhibitory concentration at 50% (EC50 value). […] Ranges of 50% effective concentrations (EC50s) for the representative compounds within the scope of this invention are listed in Tables 1-8. Preferred compounds have 50% effective concentrations at about 30 μM or less, more preferred compounds have 50% effective concentrations at about 5 μM or less, and most preferred compounds have 50% effective concentrations at about 0.5 μM or less.

HCV NS4B = target: T1, HCV NS4B (Hepatitis C virus genotype 1b, UniProt Q9WMX2); experiment: NS4B binding assay (quenching of intrinsic protein fluorescence)
T1 construct: NS4B was cloned, expressed and purified to establish an assay; made in house
Description: NS4B was cloned, expressed and purified to establish an assay, which takes advantage of the intrinsic fluorescent properties of proteins and identifies compounds, which inhibit by a NS4B specific mechanism. This protein is necessary for viral replication. It is thought to act as an anchor securing the replication complex to cellular membranes, where replication is known to occur. Several other functions necessary for viral replication have also ascribed to NS4B.

[2] = Crystal Violet cellular toxicity in parental cells harboring no replicon; type: cell-based; conditions: human, parental Huh-7 cells (harboring no replicon), 72-hour period, parental Huh-7 cells lacking replicon
Protocol: (§1) Huh-7 cells (harboring no replicon) and wild type replicon cells were seeded onto a 96 well plate. All cells were subjected to increasing amounts of a representative compound of the invention, as described in the replicon ELISA protocol. In order to assess the cellular toxicity of a compound of Formula I in both Huh-7 cells (harboring no replicon) and wild type replicon, cells were stained with Crystal Violet (a nonspecific protein stain) after 72 hours. The […] values for cells lacking replicon were generally >100.0 μM in parental Huh-7 cells for each compound. […] In this case the cells' natural defenses are strengthened and apoptosis, a natural defense to viral infection, occurs. The Huh-7 cell line is the parental cell line harboring no HCV subgenomic replicon. In this cell line, the toxicity is reduced due to the fact that there is no NS4B for the compound to bind. If the cellular toxicity in cells comprising HCV replicons and in the parental Huh-7 cell line (no replicon) are the same, then they are effective in inhibiting HCV replication rather than the modulation of apoptosis.
(§2) During drug screening efforts to identify compounds having binding affinity for HCV NS4B, the triazinoindole class of compounds of Formula VII was identified. […] However a cellular toxicity (CC50) of 20 μM was also found. […]

[3] = system: genotype 1b (BB7 isolate) replicon-containing cells; experiment: Selection of replicon variants under test compound; type: cell-based, hepatitis C virus; conditions: cell line passaged in the presence of 5 μM test compound for 7 passages
Protocol: To select for replicon variants, genotype 1b (BB7 isolate) replicon-containing cells were cultured and in the presence of 5 μM of the test compound for 7 passages. As a control, genotype 1b (BB7 isolate) replicon-containing cells were passaged in parallel, without the test compound. […] Total cellular RNA was extracted from both cell lines using Trizol Reagent (Invitrogen #15596-026) according to the manufacturer's protocol. NS5B cDNA was generated in a two-step RT-PCR reaction. PCR products were ligated into pPCR-Script Amp SK (+) (Stratagene #211188), transformed into E. coli, and sequenced.
The changes are as follows: K52R, G120V and A210S.

[4] = Crystal Violet cellular toxicity in wild type replicon cells; type: cell-based; conditions: human
Protocol: as §1, §2

[5] = Table 2, NS5A protein, 72-hour incubation, read-out: ELISA EC50
[6] = Table 2, pyrazolopyrimidine compounds, read-out: Kd
[7] = Table 5, NS5A protein, 72-hour incubation, read-out: ELISA EC50
[8] = Table 7, NS5A protein, 72-hour incubation, read-out: ELISA EC50
[9] = Table 7, triazinoindole compounds, read-out: Kd
[10] = Table 1, NS5A protein, 72-hour incubation, read-out: ELISA EC50
[11] = Table 5, aminothiophene compounds, read-out: Kd
[12] = Table 6, NS5A protein, 72-hour incubation, read-out: ELISA EC50
[13] = Table 6, phenylthiazolylamine compounds, read-out: Kd
[14] = Table 1, phenyl benzamide compounds, read-out: Kd

## Cc1nccn1-c1nc(-c2ccc(Cl)cc2)cc(C(F)(F)F)n1 [Example 1]
[1]; Table 3, NS5A protein, 72-hour incubation, read-out: ELISA EC50
  EC50: 2.2 µM
HCV NS4B; Table 3, trifluoromethylpyrimidine compound, read-out: Kd
  Kd: 2.06 µM

## O=C(NC1CCCC1)c1cc2nc(-c3ccccc3)cc(C(F)(F)F)n2n1 [Example 2]
[1]; [5]
  EC50: 1.7 µM
HCV NS4B; [6]
  Kd: 4.19 µM

## COC(=O)c1c(NC(=O)C(C)C)sc(C(=O)Nc2ccc(Cl)cc2)c1C [Example 3]
[1]; [7]
  EC50: 1.15 µM
HCV NS4B
  Kd: 0.842 µM

## CCCCc1c(C)nn(-c2nnc3c4ccccc4n(C)c3n2)c1C [Example 3]
[1]; [8]
  EC50: 5.8 µM
HCV NS4B
  Kd: 4.3 µM

## CCn1c2ccccc2c2nnc(-n3nc(C)c(C)c3C)nc21 [Example 5]
[1]; [8]
  EC50: > 25 µM
HCV NS4B; [9]
  Kd: 15.6 µM

## CCCCc1c(C)nn(-c2nnc3c4ccccc4n(CCOC)c3n2)c1C [Example 11]
[1]; [8]
  EC50: 7 µM
HCV NS4B; [9]
  Kd: 1 µM

## CC(C)Oc1cccc(C(=O)Nc2ccc(N3CCOCC3)c(Cl)c2)c1 [Example 3]
[1]; [10]
  EC50: 3.9 µM
HCV NS4B
  Kd: 4.43 µM

## CCC(=O)Nc1sc(C(=O)Nc2ccc(C)cc2)c(C)c1C(=O)OC [Example 4]
[1]; [7]
  EC50: 3.2 µM
HCV NS4B; [11]
  Kd: 1.67 µM

## COc1ccc(Cl)cc1Nc1nc(-c2cccnc2)cs1 [Example 1]
[1]; [12]
  EC50: 1.5 µM
HCV NS4B; [13]
  Kd: 1.7 µM

## CC(=O)Nc1ccc(Nc2nc(-c3cccs3)cs2)cc1 [Example 2]
[1]; [12]
  EC50: 11.2 µM
HCV NS4B; [13]
  Kd: 6.2 µM

## CCC(C)c1ccc(NC(=O)c2ccccc2F)cc1 (stereo not shown) [Example 1]
[1]; [10]
  EC50: 2.7 µM
HCV NS4B; [14]
  Kd: 2.53 µM

## CCc1c(C)nn(-c2nnc3c4ccccc4n(C)c3n2)c1C [Example 6]
[1]; [8]
  EC50: > 25 µM
HCV NS4B; [9]
  Kd: 7.5 µM

## CCCCc1c(C)nn(-c2nnc3c(n2)[nH]c2ccccc23)c1C [Example 10]
[1]; [8]
  EC50: > 25 µM
HCV NS4B; [9]
  Kd: 3.6 µM

## CCCCc1c(C)nn(-c2nnc3c4ccccc4n(CCN(CC)CC)c3n2)c1C [Example 9]
[1]; [8]
  EC50: 5.2 µM
HCV NS4B; [9]
  Kd: 1.8 µM

## Cc1nn(-c2nnc3c4ccccc4n(C)c3n2)c(C)c1C [Example 4]
[1]; [8]
  EC50: > 25 µM
HCV NS4B; [9]
  Kd: 14 µM

## COc1ccc(OC)c(Nc2nc(-c3cccs3)cs2)c1 [Example 3]
[1]; 72 h, read-out: ELISA EC50
  EC50: 2.5 µM
HCV NS4B; [13]
  Kd: 0.57 µM

## COC(=O)c1c(NC(=O)c2ccc3c(c2)OCO3)sc(C(=O)NC2CCCCC2)c1C [Example 2]
[1]; [7]
  EC50: 7.6 µM
HCV NS4B; [11]
  Kd: 4 µM

## CCCCc1c(C)nn(-c2nnc3c4ccccc4n(CCSC)c3n2)c1C [Example 12]
[1]; [8]
  EC50: 10 µM
HCV NS4B; [9]
  Kd: 1.8 µM

## CC(=O)c1ccc(NC(=O)c2cc3c(C)nn(-c4ccccc4)c3s2)cc1 [Example 1]
[1]; Table 4, NS5A protein, 72-hour incubation, read-out: ELISA EC50
  EC50: 3.15 µM
HCV NS4B; Table 4, thienopyrazole compound, read-out: Kd
  Kd: 1 µM

## CCCCc1c(C)nn(-c2nnc3c4ccccc4n(CC)c3n2)c1C [Example 1]
[1]; measured using the HCV subgenomic replicon system, read-out: EC50
  EC50: 1.2 µM
[2]
  CC50 at 72 h: > 100 µM
[3]
  reduced susceptibility to the compound: over 10 fold
[4]; HCV subgenomic replicon cells, found alongside EC50 in the HCV subgenomic replicon system
  CC50: 20 µM
[4]; Crystal Violet, 72-hour period, cells containing wild type replicons
  CC50 at 72 h: 20 µM

## COc1ccc(C(=O)Nc2ccc(N3CCOCC3)c(Cl)c2)cc1Cl [Example 2]
[1]; [10]
  EC50: 2.5 µM
HCV NS4B; [14]
  Kd: 2.32 µM

## CCCCc1c(C)nn(-c2nnc3c4ccccc4n(CCN(C(C)C)C(C)C)c3n2)c1C [Example 8]
[1]; [8]
  EC50: 6.55 µM
HCV NS4B; [9]
  Kd: 10.3 µM

## COC(=O)c1c(NC(=O)Cc2cccs2)sc(C(=O)Nc2ccc(Cl)cc2)c1C [Example 1]
[1]; [7]
  EC50: 0.7 µM
HCV NS4B; [11]
  Kd: 0.304 µM

## CC(C)c1ccc(NC(=O)c2ccccc2)cc1 [Example 4]
[1]; [10]
  EC50: 2.8 µM
HCV NS4B; [14]
  Kd: 6.9 µM

## CCC(=O)Nc1sc(C(=O)Nc2ccc(Cl)cc2)c(C)c1C(=O)OC [Example 5]
[1]; [7]
  EC50: 4.55 µM
HCV NS4B; [11]
  Kd: 2.52 µM

## CCn1c2ccccc2c2nnc(-n3nc(C)c(-c4ccccc4)c3C)nc21 [Example 2]
[1]; [8]
  EC50: 1 µM
HCV NS4B; [9]
  Kd: 2.2 µM

## CCCc1cc(O)n2nc(-c3ccc(C)cc3)c(C)c2n1 [Example 1]
[1]; [5]
  EC50: 2.2 µM
HCV NS4B; [6]
  Kd: 5.96 µM

## O=C(NCc1cccs1)c1cc2nc(-c3ccco3)cc(C(F)(F)Cl)n2n1 [Example 3]
[1]; [5]
  EC50: 0.63 µM
HCV NS4B
  Kd: 0.662 µM

## CCCCc1c(C)nn(-c2nnc3c4ccccc4n(CCO)c3n2)c1C [Example 7]
[1]; [8]
  EC50: > 25 µM
HCV NS4B; [9]
  Kd: 2 µM
